# “Also recorded” adds a separate entry of the source.
# Tests used:
# [1] = test system: diaphragm fiber bundle of MCT mice; experiment: Contractile function of diaphragm fiber bundles, MCT mice; format: in vivo; conditions: MCT mice fed compound vs MCT; MCT impairs by around 20% vs sham
# Description: To provide a direct functional assessment, the contractility in skeletal muscle fiber bundles, i.e. fibre bundle from the diaphragm of MCT mice and CIF mice, was measured as follows. A fiber bundle from the diaphragm was isolated to allow in vitro contractile function to be assessed using a length-controlled lever system (301B, Aurora Scientific Inc., Aurora, Canada), as described by Bowen et al., FASEB J, 2017, 31. Briefly, a muscle bundle was mounted vertically in a buffer-filled organ bath (˜22° C.), set at optimal length, and after 15 min was stimulated over a force-frequency protocol between 1-300 Hz (600 mA; 500 ms train duration; 0.25 ms pulse width). […] Shortening velocity was determined 10 ms after the first change in length and on the linear section of the transient (DMA software, Aurora Scientific). Force (N) was normalized to muscle cross-sectional area (CSA; cm^2) by dividing muscle mass (g) by the product of Lo (cm) and estimated muscle density (1.06), which allowed specific force in N/cm^2 to be calculated. Shortening velocity was normalized to optimal muscle length (in Lo/s), while power was calculated for each load as the product of shortening velocity and specific force (in W/cm^2).
# Murine C2C12 myoblasts = experiment: Cytotoxicity, LDH release in cultured myoblasts; format: cell-based; conditions: increasing concentrations, 24 h
# Description: Murine C2C12 myoblasts (CRL-1772, ATCC) were cultured in DMEM (Lonza; Basel, Switzerland) supplemented with 10% fetal calf serum (FCS; Gibco®Invitrogen, Carlsbad, CA). For induction of differentiation into myotubes, subconfluent cultures were switched to DMEM containing 2% horse serum (Sigma-Aldrich; Seelze, Germany). Myotubes were subsequently pre-treated for 2 h with increasing compound concentrations (0.1 to 10 μmol/L, dissolved in DMSO) or with an equal volume of DMSO before treatment for 24 h with 10 μmol/L dexamethasone (DEX; Sigma-Aldrich; Seelze, Germany). Myotube diameter was then evaluated by image analysis software (Analysis 3.0, Olympus Soft Imaging Solutions GmbH, Munster, Germany). To determine cytotoxicity of selected compounds, myoblasts or myotubes were incubated with increasing concentrations for 24 h. Subsequently, the concentration of lactate dehydrogenase (LDH) activity was quantified in the cell culture supernatant as a measure for cell destruction as described in Bellocci et al., Anal Biochem, 2008, 374, 48-55.
# [2] = test system: monocrotaline (MCT)-treated C57BL/6 mice; experiment: Pulmonary hypertension mouse model, test series 1; format: in vivo; conditions: MCT+compound chow vs MCT
# Description: The animal experiments were approved by the Regierungspräsidium Karlsruhe (35-9185.81/G-141/13) and the Regierungspräsidium Leipzig (TVV 40/16). Three groups of mice were included in this study, including: 1) saline-treated (sham; n=20); 2) monocrotaline (MCT)-treated fed normal chow (MCT; n=27); and 3) MCT-treated fed MuRF1 inhibitor chow (MCT+compound; n=27). Briefly, C57BL/6 mice (aged 8 weeks) were subcutaneously injected weekly with either MCT (600 mg/kg) or a matched volume of saline for 6 weeks, a time period where MCT is known to induce cardiac cachexia due to pulmonary hypertension and subsequent RV dysfunction rather than anorexia, as described by Ahn et al., PLoS One, 2013, 8:e62702. Mice were exposed to identical conditions under a 12:12 h light/dark cycle with food and water provided ad libitum. The MCT+compound group started receiving the inhibitor chow 1 week prior to the MCT injections, whereas the sham and MCT groups were fed an identical chow but without the addition of the selected compound. Body weight was recorded every week for each mouse. […]
# For histological evaluation, paraffin-embedded TA muscle sections (3 μm) were stained with H&E and fiber cross-sectional area (CSA) and then evaluated by imaging software (Analysis 3.0, Olympus Soft Imaging Solutions GmbH, Munster, Germany). […]
# [3] = test system: citrate synthase and mitochondrial complex I; experiment: Enzyme activity measurements in muscle tissue, B16F10 mice; format: in vivo; conditions: tumor+compound vs tumor
# Description: The enzyme activities of citrate synthase and mitochondrial complex I in muscle tissue of B16F10 inoculated mice were determined as described above for the […] mice.
# [4] = test system: MuRF1, Nox 2, LC3 I/II, nitrotyrosine; experiment: Protein expression and nitrotyrosine in muscle tissue of B16F10 mice; format: in vivo; conditions: tumor+compound vs tumor
# Description: Protein expression of MuRF1, Nox 2 and LC3 I/II in muscle tissue of B16F10 mice was determined as described above for the MCT and CHF mice. In addition, the level of the reactive oxygen species marker nitrotyrosine was determined.
# [5] = test system: citrate synthase, succinate dehydrogenase, mitochondrial complex I, cytoplasmic enzymes; experiment: Enzyme activity measurements in diaphragm tissue, CHF mice; format: in vivo; conditions: CHF+compound
# Description: Diaphragmatic tissue was homogenized in relaxing buffer, and aliquots were used for enzyme activity measurements. Enzyme activities for lactate dehydrogenase (EC 1.1.1.27), pyruvate kinase (EC 2.7.1.40), succinate dehydrogenase (SDH, EC 1.3.5.1), citrate synthase (CS, EC 2.3.3.1), β-hydroxyacyl-COA dehydrogenase (EC 1.1.1.35), and mitochondrial complex I were measured spectrophotometrically as previously described in detail (Mukherjee et al., J Biol Chem, 1976, 251, 2155-2160; Vanderlinde et al., Ann Clin Lab Sci, 1985, 15, 13-31; Dzeja et al., Mol Cell Biochem, 1999, 201, 33-40; Takashi et al., Biochim Biohphys Acta, 1979, 574, 258-267; Schwarzer et al., J Physiol, 2014, 592, 3767-3782). Enzyme activity data are presented as the fold change relative to sham.
compound,measurement,setting,value
"Cc1cc(=O)oc2cc(OCc3ccc(C(=O)OCC(=O)NC(=O)NCc4ccco4)cc3)ccc12 [MyoMed-946, [2-(2-furylmethylcarbamoylamino)-2-oxo-ethyl] 4-[(4-methyl-2-oxo-chromen-7-yl)oxymethyl]benzoate]",contractile dysfunction of the diaphragm (shortening velocity and power),[1],essentially prevented
same,toxicity (LDH release),Murine C2C12 myoblasts,low toxicity
same,right ventricle hypertrophy,[2]; 6 weeks MCT,attenuated; also recorded: attenuates the development of right ventricle hypertrophy
same,"loss of skeletal muscle mass (EDL, soleus, TA wet weight, TA fiber CSA)",[2]; most obvious effect in TA muscle,protected
same,citrate synthase enzyme activity,[3],attenuated; also recorded: partially or complete restores
same,downregulation of expression levels of LC3 I/II,[4],attenuated; also recorded: not observed
same,expression of Nox 2,[4],attenuated; also recorded: significantly reduced
same,tissue level of nitrotyrosine,[4],attenuated; also recorded: significantly reduced
same,up-regulation of MuRF1 expression,[4],attenuated; also recorded: prevented
same,citrate synthase enzyme activity,[5]; reduced by 21% in CHF vs sham,attenuated; also recorded: partially improved
same,mitochondrial complex I enzyme activity,[5]; reduced by 27% in CHF vs sham,attenuated; also recorded: partially improved
same,succinate dehydrogenase enzyme activity,[5]; reduced by 28% in CHF vs sham,attenuated; also recorded: partially improved

# Source: patent US12331042B2, “Compounds suitable for the treatment and prophylaxis of muscle wasting and other conditions” (priority 2019, dated 2025)
